Experimental data as given in ChEMBL document CHEMBL1130296, “Benzo[c]quinoliziniums: A new family of inhibitors for protein kinase CK II” (Bioorg Med Chem Lett, 1997).

How the values were obtained:
Casein kinase II [1] = target: T1, Casein kinase II (Homo sapiens, UniProt P19784+P67870+P68400); assay: Inhibitory concentration was determined towards Casein kinase 2; assay type: protein-complex assay
Protein kinase C (PKC) = assay: Inhibition of protein kinase C; assay type: protein assay
Casein kinase II [2] = target: T1, Casein kinase II; assay: Inhibition of casein kinase II; assay type: protein-complex assay
[3] = target: Cyclin-dependent kinase 1 (Homo sapiens, UniProt P06493); assay: Inhibition of cyclin-dependent kinase 1 cdc2
[4] = target: Proto-oncogene tyrosine-protein kinase Src (Homo sapiens, UniProt P12931); assay: Inhibition of p60 c-Src tyrosine kinase (No inhibition)
Proto-oncogene tyrosine-protein kinase Src, sequence (P12931 2-536 limits assumed): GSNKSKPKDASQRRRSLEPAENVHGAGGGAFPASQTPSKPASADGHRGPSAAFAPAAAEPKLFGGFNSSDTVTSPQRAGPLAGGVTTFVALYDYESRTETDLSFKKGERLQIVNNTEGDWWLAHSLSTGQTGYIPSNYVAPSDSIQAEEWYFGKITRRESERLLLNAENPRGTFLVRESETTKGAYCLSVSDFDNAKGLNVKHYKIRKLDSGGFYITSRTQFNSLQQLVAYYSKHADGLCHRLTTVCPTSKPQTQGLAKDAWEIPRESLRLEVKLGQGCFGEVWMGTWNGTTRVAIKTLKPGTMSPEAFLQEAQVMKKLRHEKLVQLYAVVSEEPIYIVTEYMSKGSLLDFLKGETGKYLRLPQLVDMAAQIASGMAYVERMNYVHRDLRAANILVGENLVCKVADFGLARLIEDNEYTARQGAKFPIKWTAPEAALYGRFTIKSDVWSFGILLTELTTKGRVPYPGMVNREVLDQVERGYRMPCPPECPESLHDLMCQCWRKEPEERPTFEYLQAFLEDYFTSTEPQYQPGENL

T1 sequence (P67870 whole entry): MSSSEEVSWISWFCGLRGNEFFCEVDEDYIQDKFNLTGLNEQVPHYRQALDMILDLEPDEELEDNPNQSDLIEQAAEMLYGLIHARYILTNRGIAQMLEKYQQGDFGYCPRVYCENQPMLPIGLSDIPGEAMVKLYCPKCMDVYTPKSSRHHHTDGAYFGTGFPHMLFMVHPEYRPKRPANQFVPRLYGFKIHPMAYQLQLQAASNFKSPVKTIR
T1 sequence (P68400 whole entry): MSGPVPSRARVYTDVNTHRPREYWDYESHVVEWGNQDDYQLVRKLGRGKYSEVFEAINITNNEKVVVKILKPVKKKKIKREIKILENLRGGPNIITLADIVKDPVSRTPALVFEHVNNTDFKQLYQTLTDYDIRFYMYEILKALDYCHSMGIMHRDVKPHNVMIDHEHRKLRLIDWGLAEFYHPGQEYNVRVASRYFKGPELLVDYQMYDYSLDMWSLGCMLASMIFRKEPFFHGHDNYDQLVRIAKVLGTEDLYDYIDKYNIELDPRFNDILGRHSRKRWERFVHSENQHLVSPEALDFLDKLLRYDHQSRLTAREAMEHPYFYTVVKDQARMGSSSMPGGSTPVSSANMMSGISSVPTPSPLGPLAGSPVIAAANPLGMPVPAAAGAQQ
T1 sequence (P19784 whole entry): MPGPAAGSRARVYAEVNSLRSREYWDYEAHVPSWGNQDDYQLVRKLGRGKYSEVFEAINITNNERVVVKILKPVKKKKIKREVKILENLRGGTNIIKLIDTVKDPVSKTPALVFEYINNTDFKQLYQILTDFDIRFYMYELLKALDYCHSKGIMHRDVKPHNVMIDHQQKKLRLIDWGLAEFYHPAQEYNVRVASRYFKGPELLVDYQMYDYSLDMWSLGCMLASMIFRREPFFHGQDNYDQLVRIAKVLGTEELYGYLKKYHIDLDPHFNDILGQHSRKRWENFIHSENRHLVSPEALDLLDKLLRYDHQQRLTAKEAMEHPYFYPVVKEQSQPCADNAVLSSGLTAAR
Cyclin-dependent kinase 1, sequence (P06493 whole entry): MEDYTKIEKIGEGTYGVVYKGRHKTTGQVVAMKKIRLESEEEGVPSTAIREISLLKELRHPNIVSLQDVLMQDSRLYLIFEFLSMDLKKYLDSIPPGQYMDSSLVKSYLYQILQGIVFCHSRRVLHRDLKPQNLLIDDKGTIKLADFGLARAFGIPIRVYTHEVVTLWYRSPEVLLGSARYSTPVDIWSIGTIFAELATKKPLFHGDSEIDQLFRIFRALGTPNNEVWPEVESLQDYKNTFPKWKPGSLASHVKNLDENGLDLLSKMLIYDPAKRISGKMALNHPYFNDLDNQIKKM

## Oc1cc2cccc[n+]2c2ccccc12 [listing 1 of 2 here]
Casein kinase II [1]
  IC50: 43 µM

## O/C(=C/c1ccccn1)c1ccc(Cl)cc1Cl
Casein kinase II [1]
  IC50: 900 µM

## O/C(=C/c1ccccn1)c1cccc(Cl)c1Cl
Casein kinase II [1]
  IC50: 130 µM

## Oc1cc2cccc[n+]2c2ccc(Cl)cc12
Casein kinase II [1]
  IC50: 210 µM

## O/C(=C/c1ccccn1)c1ccccc1
Casein kinase II [1]
  IC50: 2500 µM

## Nc1cc2cccc[n+]2c2ccccc12 [listing 1 of 2 here]
Casein kinase II [1]
  IC50: 110 µM

## Nc1cc2cccc[n+]2c2ccccc12 [listing 2 of 2 here]
Casein kinase II [1]
  IC50: 100 µM

## Nc1cc2cccc[n+]2c2cc(Cl)ccc12
Casein kinase II [1]
  IC50: 24 µM

## Oc1cc2cccc[n+]2c2c(Cl)cccc12.[Cl-]
Protein kinase C (PKC)
  IC50: 38 µM
Casein kinase II [2]
  IC50: 5 µM
[3]
  IC50: > 1000 µM
[4]
  IC50: Not Active

## Nc1cc2cccc[n+]2c2c(Cl)cccc12
Casein kinase II [1]
  IC50: 50 µM

## O/C(=C/c1ccccn1)c1ccccc1Cl
Casein kinase II [1]
  IC50: 1200 µM

## Nc1cc2cccc[n+]2c2cccc(Cl)c12
Casein kinase II [1]
  IC50: 84 µM

## Oc1cc2cccc[n+]2c2cccc(Cl)c12
Casein kinase II [1]
  IC50: 18 µM

## Oc1cc2cccc[n+]2c2ccccc12 [listing 2 of 2 here]
Casein kinase II [1]
  IC50: 50 µM

## O/C(=C/c1ccccn1)c1c(Cl)cccc1Cl
Casein kinase II [1]
  IC50: 580 µM

## O/C(=C/c1ccccn1)c1ccccc1Br
Casein kinase II [1]
  IC50: 820 µM

## Oc1cc2cccc[n+]2c2cc(Cl)ccc12
Casein kinase II [1]
  IC50: 39 µM
